Test [1] has as its system HT-29. Description: Cytotoxicity against human HT29 cells. The class given is functional, cell-based.
The subject of test [2] is NCI/ADR-RES. Description: Cytotoxicity against human NCI/ADR-RES cells. The class given is functional, cell-based.

Data on three compounds can be found in ChEMBL document CHEMBL1141488, “Modifying the glycosidic linkage in digitoxin analogs provides selective cytotoxins” (Bioorg Med Chem Lett, 2008).

A value given as a limit tells only on which side of the number the result lay.

`C[C@]12CC[C@H](N(OCc3ccccc3)OC3OC[C@H](O)[C@@H](O)[C@@H]3O)C[C@H]1CC[C@@H]1[C@@H]2CC[C@]2(C)[C@@H](C3=CC(=O)OC3)CC[C@]12O` (stereo partly drawn): the IC50 (commonly the concentration that gives 50% inhibition) in test [1] is > 1000 nM.

Take `CC(C)ON(OC1OC[C@H](O)[C@@H](O)[C@@H]1O)[C@H]1CC[C@@]2(C)[C@H](CC[C@@H]3[C@@H]2CC[C@]2(C)[C@@H](C4=CC(=O)OC4)CC[C@]32O)C1` (stereo partly drawn): the IC50 in test [2] turned out to be 120 nM.

In turn, `CC(C)ON(OC1OC[C@H](O)[C@H](O)[C@@H]1O)[C@H]1CC[C@@]2(C)[C@H](CC[C@@H]3[C@@H]2CC[C@]2(C)[C@@H](C4=CC(=O)OC4)CC[C@]32O)C1` (stereo partly drawn) showed an IC50 in test [2] of 110 nM.
